pIC50: −log10 of the molar value. Like-named read-outs stand apart in the source and are kept apart here.
Experiments:
HDAC5 = HDAC5 (Homo sapiens, UniProt Q9UQL6); experiment: HDAC enzymatic assay, HDAC5; format: biochemical; conditions: for IC50: fluorogenic tetrapeptide RHKKAc substrate 10 μM, read-out: HDAC isoforms IC50 (nM), 5; for pIC50: Table 2, thio (SH) vs hydroxamate (CONHOH) MBG analogues, read-out: HDAC isoforms, 5 (IC50)
Procedure: (§1) Each compound was dissolved in DMSO, and progressively diluted solutions were used for testing. […] Upon its deacetylation, the fluorophore was released given rise to fluorescence emission which was detected by a fluorimeter, and the IC50 values of the compounds were determined by analyzing dose-response inhibition curves.

HDAC7 = biological target: T1, HDAC7 (Homo sapiens, UniProt Q8WUI4); experiment: HDAC enzymatic assay, HDAC7; format: biochemical; conditions: for IC50: fluorogenic tetrapeptide RHKKAc substrate 10 μM, read-out: HDAC isoforms IC50 (nM), 7; for pIC50: Table 2, thio (SH) vs hydroxamate (CONHOH) MBG analogues, read-out: HDAC isoforms, 7 (IC50)
T1 sequence (Q8WUI4 1-952): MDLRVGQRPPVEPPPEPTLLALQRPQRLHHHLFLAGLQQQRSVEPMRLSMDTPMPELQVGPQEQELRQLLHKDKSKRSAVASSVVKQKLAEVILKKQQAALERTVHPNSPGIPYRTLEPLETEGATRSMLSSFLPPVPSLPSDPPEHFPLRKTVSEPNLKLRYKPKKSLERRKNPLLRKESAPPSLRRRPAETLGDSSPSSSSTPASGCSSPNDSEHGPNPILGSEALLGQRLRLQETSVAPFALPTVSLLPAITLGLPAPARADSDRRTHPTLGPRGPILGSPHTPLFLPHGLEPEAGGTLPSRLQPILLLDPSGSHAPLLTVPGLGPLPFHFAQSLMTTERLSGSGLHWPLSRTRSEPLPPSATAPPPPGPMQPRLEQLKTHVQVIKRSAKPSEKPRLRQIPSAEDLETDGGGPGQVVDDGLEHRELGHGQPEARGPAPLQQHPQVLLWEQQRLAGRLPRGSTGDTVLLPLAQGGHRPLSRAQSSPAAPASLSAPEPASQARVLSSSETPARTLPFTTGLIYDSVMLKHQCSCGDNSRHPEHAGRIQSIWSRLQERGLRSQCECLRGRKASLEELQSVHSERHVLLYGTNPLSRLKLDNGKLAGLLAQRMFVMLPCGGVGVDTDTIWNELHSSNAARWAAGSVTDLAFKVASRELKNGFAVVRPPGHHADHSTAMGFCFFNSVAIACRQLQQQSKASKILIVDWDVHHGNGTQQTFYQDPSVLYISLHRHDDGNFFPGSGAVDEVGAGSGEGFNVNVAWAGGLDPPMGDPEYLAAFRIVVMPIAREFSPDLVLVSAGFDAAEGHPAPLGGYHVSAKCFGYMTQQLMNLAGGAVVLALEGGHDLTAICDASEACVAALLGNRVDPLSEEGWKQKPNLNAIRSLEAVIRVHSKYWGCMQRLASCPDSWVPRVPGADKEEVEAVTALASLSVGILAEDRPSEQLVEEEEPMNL
Procedure: as §1

HDAC8 = biological target: T2, HDAC8 (Homo sapiens, UniProt Q9BY41); experiment: HDAC enzymatic assay, HDAC8; format: biochemical; conditions: for IC50: fluorogenic tetrapeptide RHKKAc substrate 10 μM, read-out: HDAC isoforms IC50 (nM), 8; for pIC50: Table 2, thio (SH) vs hydroxamate (CONHOH) MBG analogues, read-out: HDAC isoforms, 8 (IC50)
T2 sequence (Q9BY41 1-377): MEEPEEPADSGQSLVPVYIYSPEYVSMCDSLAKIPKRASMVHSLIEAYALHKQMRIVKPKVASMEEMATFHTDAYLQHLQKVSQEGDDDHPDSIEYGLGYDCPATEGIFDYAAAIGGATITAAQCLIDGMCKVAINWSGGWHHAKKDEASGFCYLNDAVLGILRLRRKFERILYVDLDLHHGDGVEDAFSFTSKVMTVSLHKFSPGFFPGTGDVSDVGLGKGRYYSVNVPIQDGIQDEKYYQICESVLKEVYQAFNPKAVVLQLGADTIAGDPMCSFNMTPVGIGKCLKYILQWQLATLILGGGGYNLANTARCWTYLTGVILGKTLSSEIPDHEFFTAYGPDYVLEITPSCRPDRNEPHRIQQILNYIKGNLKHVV
Procedure: as §1

HDAC9 = HDAC9 (Homo sapiens, UniProt Q9UKV0); experiment: HDAC enzymatic assay, HDAC9; format: biochemical; conditions: for IC50: fluorogenic tetrapeptide RHKKAc substrate 10 μM, read-out: HDAC isoforms IC50 (nM), 9; for pIC50: Table 2, thio (SH) vs hydroxamate (CONHOH) MBG analogues, read-out: HDAC isoforms, 9 (IC50)
Procedure: as §1

[1] = test system: HCT116 colon cancer cells; experiment: Cytotoxicity, sulphorodamine B, HCT116; conditions: Homo sapiens, HCT-116, read-out: HCT116 cell line IC50 (μM)
Procedure: They were allowed to attach and recover for at least 24 h.
The plates were incubated for 24 h at 37° C., after which they were washed 3 times by removal of the supernatant and addition of PBS. The plates were then incubated for further 48 h at 37° C. 200 μl PBS and 50 μl of cold 80% TCA were added and the plates were incubated on ice for at least 1 h. TCA was removed and the plates were washed 3 times by immersion in distilled-water. They were then dried on paper at 40° C. for 5 min. 200 μl of 0.4% sulphorodamine B in 1% acetic acid were added. The plates were incubated at room temperature for further 30 min. Sulphorodamine B was removed, and the plates were washed 3 times by immersion in 1% acetic acid and were dried on paper and at 40° C. for 5 min. Then 200 μl Tris 10 mM were added. The plates were kept under magnetic stirring for 20 min. Cell survival was determined by means of optical density by a Multiskan spectrofluorimeter at 540 nm. The amount of cells killed was calculated as the percentage decrease in sulphorodamine B binding compared to control cultures.

HDAC5, sequence (Q9UQL6 whole entry, canonical isoform): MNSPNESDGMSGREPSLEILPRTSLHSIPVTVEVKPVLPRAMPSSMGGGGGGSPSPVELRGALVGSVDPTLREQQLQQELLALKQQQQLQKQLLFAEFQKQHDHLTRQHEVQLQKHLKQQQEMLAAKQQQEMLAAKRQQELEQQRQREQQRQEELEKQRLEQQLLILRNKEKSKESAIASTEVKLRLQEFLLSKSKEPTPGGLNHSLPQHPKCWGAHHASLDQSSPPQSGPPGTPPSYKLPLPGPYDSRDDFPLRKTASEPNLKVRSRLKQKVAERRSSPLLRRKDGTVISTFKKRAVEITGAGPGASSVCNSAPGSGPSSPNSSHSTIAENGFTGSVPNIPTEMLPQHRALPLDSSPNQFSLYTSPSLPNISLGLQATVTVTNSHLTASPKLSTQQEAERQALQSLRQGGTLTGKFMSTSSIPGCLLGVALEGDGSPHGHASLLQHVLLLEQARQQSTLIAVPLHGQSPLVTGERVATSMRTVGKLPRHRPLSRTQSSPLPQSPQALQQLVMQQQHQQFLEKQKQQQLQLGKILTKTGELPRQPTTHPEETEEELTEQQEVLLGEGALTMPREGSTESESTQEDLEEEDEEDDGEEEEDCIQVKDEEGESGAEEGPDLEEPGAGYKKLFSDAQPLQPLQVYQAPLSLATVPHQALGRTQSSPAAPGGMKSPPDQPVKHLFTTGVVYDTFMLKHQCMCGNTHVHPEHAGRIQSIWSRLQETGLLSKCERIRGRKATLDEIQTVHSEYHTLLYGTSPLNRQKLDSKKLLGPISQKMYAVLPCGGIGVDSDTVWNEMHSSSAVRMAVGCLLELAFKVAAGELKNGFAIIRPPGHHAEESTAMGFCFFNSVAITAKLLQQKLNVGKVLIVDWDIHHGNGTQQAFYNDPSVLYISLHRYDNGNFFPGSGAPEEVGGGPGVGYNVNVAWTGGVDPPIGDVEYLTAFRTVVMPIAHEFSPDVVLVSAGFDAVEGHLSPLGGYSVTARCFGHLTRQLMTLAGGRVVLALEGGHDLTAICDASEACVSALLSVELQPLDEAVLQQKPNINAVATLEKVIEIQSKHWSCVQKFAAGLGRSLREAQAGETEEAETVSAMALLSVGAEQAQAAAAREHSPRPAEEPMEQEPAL
HDAC9, sequence (Q9UKV0 whole entry, canonical isoform): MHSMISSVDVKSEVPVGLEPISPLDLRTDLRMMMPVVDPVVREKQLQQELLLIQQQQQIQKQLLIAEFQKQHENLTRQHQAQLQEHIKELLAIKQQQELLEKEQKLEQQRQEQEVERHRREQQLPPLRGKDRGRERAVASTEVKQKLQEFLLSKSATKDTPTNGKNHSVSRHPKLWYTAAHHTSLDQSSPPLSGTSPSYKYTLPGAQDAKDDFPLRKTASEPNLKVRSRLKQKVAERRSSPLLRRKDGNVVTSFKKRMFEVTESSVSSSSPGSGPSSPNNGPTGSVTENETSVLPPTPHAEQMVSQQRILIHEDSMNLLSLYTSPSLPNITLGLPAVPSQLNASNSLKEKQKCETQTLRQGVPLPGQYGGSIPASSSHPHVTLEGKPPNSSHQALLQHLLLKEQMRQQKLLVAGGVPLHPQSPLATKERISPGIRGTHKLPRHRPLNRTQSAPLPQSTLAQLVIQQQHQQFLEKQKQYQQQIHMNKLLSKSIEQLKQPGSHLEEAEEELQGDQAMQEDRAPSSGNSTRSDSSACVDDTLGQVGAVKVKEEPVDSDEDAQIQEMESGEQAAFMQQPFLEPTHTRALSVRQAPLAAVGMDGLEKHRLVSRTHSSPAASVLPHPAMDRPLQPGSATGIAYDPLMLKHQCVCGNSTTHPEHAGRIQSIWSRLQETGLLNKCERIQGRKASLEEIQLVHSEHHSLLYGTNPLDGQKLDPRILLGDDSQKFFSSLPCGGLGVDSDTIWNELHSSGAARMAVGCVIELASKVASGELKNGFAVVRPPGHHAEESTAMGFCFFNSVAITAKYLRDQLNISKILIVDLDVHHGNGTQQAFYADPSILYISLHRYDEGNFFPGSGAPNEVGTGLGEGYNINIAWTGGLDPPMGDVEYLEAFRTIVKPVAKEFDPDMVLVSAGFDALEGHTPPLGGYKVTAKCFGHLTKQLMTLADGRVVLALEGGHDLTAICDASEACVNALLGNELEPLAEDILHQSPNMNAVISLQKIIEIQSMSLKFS

SMILES | IC50 (HDAC5) [nM] | IC50 (HDAC7) [nM] | IC50 (HDAC8) [nM] | IC50 (HDAC9) [nM] | pIC50 (HDAC5) | pIC50 (HDAC7) | pIC50 (HDAC8) | IC50 [1] [µM] | pIC50 (HDAC9)
O=C1CCC[C@@H](C(=O)N[C@@H](CCCCCS)C(=O)Nc2ccccc2)N1 [Example 23, (S)-6-Oxo-piperidine-2-carboxylic acid ((S)-6-mercapto-1-phenylcarbamoyl-hexyl)amide] | < 50 | < 50 | 100 to 500 | < 50 |  |  |  |  | 
O=C1CCC[C@@H](C(=O)N[C@@H](CCCCCS)C(=O)NC2CCCC2)N1 [Example 24, (S)-6-Oxo-piperidine-2-carboxylic acid ((S)-1-cyclopentylcarbamoyl-6-mercapto-hexyl)amide] | 100 to 500 | < 50 | 100 to 500 | < 50 |  |  |  |  | 
O=C1CCC[C@@H](C(=O)N[C@@H](CCCCCS)C(=O)NCc2cccc(OCc3ccccc3)c2)N1 [Example 25, (S)-6-Oxo-piperidine-2-carboxylic acid [(S)-1-(3-benzyloxy-benzylcarbamoyl)-6-mercapto-hexyl]-amide] | 100 to 500 | 100 to 500 | < 50 | 100 to 500 |  |  |  |  | 
O=C1CCC[C@@H](C(=O)N[C@@H](CCCCCS)C(=O)NCc2ccc(C(F)(F)F)cc2)N1 [Example 26, (S)-6-Oxo-piperidine-2-carboxylic acid [(S)-6-mercapto-1-(4-trifluoromethyl-benzylcarbamoyl)-hexyl]-amide] | 100 to 500 | 100 to 500 | < 50 | 100 to 500 |  |  |  |  | 
O=C1C[C@@H](C(=O)N[C@@H](CCCCCS)C(=O)Nc2ccccc2)N1 [Example 27, (S)-4-Oxo-azetidine-2-carboxylic acid ((S)-6-mercapto-1-phenylcarbamoyl-hexyl)amide] | < 50 | < 50 | 50 to 100 | < 50 |  |  |  |  | 
O=C1NC[C@H](c2ccccc2)[C@@H]1C(=O)N[C@@H](CCCCCS)C(=O)Nc1ccccc1 [Example 28, (3S,4S)-2-Oxo-4-phenyl-pyrrolidine-3-carboxylic acid ((S)-6-mercapto-1-phenylcarbamoyl-hexyl)-amide] | 50 to 100 | 100 to 500 | 100 to 500 | < 50 |  |  |  |  | 
O=C1NC[C@@H](c2ccccc2)[C@H]1C(=O)N[C@@H](CCCCCS)C(=O)Nc1ccccc1 [Example 29, (3R,4R)-2-Oxo-4-phenyl-pyrrolidine-3-carboxylic acid ((S)-6-mercapto-1-phenylcarbamoyl-hexyl)-amide] | 100 to 500 | 100 to 500 | 100 to 500 | 50 to 100 |  |  |  |  | 
O=C1NC[C@H](c2ccccc2)[C@H]1C(=O)N[C@@H](CCCCCS)C(=O)Nc1ccccc1 [Example 30, (3R,4S)-2-Oxo-4-phenyl-pyrrolidine-3-carboxylic acid ((S)-6-mercapto-1-phenylcarbamoyl-hexyl)-amide] | 100 to 500 | 100 to 500 | 100 to 500 | 50 to 100 |  |  |  |  | 
O=C1NC[C@@H](c2ccccc2)[C@@H]1C(=O)N[C@@H](CCCCCS)C(=O)Nc1ccccc1 [Example 31, (3S,4R)-2-Oxo-4-phenyl-pyrrolidine-3-carboxylic acid ((S)-6-mercapto-1-phenylcarbamoyl-hexyl)-amide] | < 50 | < 50 | < 50 | < 50 | > 7.30 | > 7.30 | > 7.30 | 1 to 10 | > 7.30
O=C1CCC[C@@H](C(=O)N[C@@H](CCCCCS)C(=O)N2CCc3ccccc3C2)N1 [Example 32, (S)-6-Oxo-piperidine-2-carboxylic acid [(S)-1-(3,4-dihydro-1H-isoquinoline-2-carbonyl)-6-mercapto-hexyl]-amide] | 100 to 500 | 100 to 500 | 100 to 500 | 100 to 500 |  |  |  |  | 
O=C1CC[C@H](C(=O)N[C@@H](CCCCCS)C(=O)Nc2ccccc2)N1 [Example 33, (R)-5-Oxo-pyrrolidine-2-carboxylic acid ((S)-6-mercapto-1-phenylcarbamoyl-hexyl)amide] | < 50 | < 50 | 100 to 500 | < 50 | > 7.30 | > 7.30 | 6.30 to 7.00 | 1 to 10 | > 7.30
Cc1cccc(CCNC(=O)[C@H](CCCCCS)NC(=O)[C@@H]2CCCC(=O)N2)c1 [Example 34, (S)-6-Oxo-piperidine-2-carboxylic acid [(S)-6-mercapto-1-(2-m-tolyl-ethylcarbamoyl)hexyl]-amide] | 100 to 500 | 100 to 500 | < 50 | 100 to 500 |  |  |  |  | 
O=C1NCCC[C@H]1C(=O)N[C@@H](CCCCCS)C(=O)Nc1ccccc1 [Example 35, (R)-2-Oxo-piperidine-3-carboxylic acid ((S)-6-mercapto-1-phenylcarbamoyl-hexyl)amide] | < 50 | < 50 | 50 to 100 | < 50 |  |  |  |  | 
O=C1NCCC[C@@H]1C(=O)N[C@@H](CCCCCS)C(=O)Nc1ccccc1 [Example 36, (S)-2-Oxo-piperidine-3-carboxylic acid ((S)-6-mercapto-1-phenylcarbamoyl-hexyl)amide] | < 50 | 50 to 100 | 100 to 500 | < 50 |  |  |  |  | 
O=C1CCC[C@H](C(=O)N[C@@H](CCCCCS)C(=O)Nc2ccccc2)N1 [Example 37, (R)-6-Oxo-piperidine-2-carboxylic acid ((S)-6-mercapto-1-phenylcarbamoyl-hexyl)amide] | < 50 | 100 to 500 | 100 to 500 | < 50 |  |  |  |  | 
Cc1cccc(NC(=O)[C@H](CCCCCS)NC(=O)[C@@H]2CCCC(=O)N2)c1 [Example 38, (S)-6-Oxo-piperidine-2-carboxylic acid ((S)-6-mercapto-1-m-tolylcarbamoyl-hexyl)amide] | < 50 | < 50 | 100 to 500 | < 50 |  |  |  |  | 
Cc1ccc(NC(=O)[C@H](CCCCCS)NC(=O)[C@@H]2CCCC(=O)N2)cc1 [Example 39, (S)-6-Oxo-piperidine-2-carboxylic acid ((S)-6-mercapto-1-p-tolylcarbamoyl-hexyl)amide] | < 50 | < 50 | 100 to 500 | < 50 |  |  |  |  | 
CN1C(=O)CCC[C@H]1C(=O)N[C@@H](CCCCCS)C(=O)Nc1ccccc1 [Example 40, (S)-1-Methyl-6-oxo-piperidine-2-carboxylic acid ((S)-6-mercapto-1-phenylcarbamoyl-hexyl)-amide] | < 50 | < 50 | 100 to 500 | < 50 |  |  |  |  | 

From patent publication US8927533B2, “Thio derivatives bearing lactams as potent HDAC inhibitors and their uses as medicaments” (SIGMA-TAU Industrie Farmaceutiche Riunite S.p.A., priority 2011, dated 2015)
